Assay results from patent US9062119B2, “Modified peptide toxins” (University of Debrecen, priority 2011, dated 2015).
pIC50, pKd: −log10 of the molar value. Read-outs that look alike come from different tables or passages of the source. Where a SMILES comes first, the peptide text is derived from it.

Legend:
Kv1.3 channels [1] = target: T1, Kv1.3 channels (Homo sapiens, UniProt P22001); test: Whole-cell patch-clamp block of Kv1.3 currents in activated human peripheral T lymphocytes; assay type: cell-based
T1 construct: endogenous in cells
Experimental: (§1) Dose-response relationships of the synthetic wild-type toxin and the single and double mutants on Kv1.3 channels The blocking efficiency of the toxins was tested on activated lymphocytes. The remaining current fraction (RCF) was calculated as I/I0, where I and I0 represent the whole-cell current amplitude in the presence and absence of the toxin at the indicated concentrations, respectively. Data points are plotted with error bars representing SEM and were fitted with a Hill-equation to obtain the Kd of the binding.
(§2) Kv1.3 currents were measured in human peripheral T lymphocytes. Heparinized human peripheral venous blood was obtained from healthy volunteers. Mononuclear cells were separated by Ficoll-Hypaque density gradient centrifugation. Collected cells were washed twice with Ca^2+ and Mg^2+ free Hank's solution containing 25 mM HEPES buffer (pH 7.4). Cells were cultured in a 5% CO2 incubator at 37° C. in 24 well culture plates in RPMI-1640 supplements with 10% FCS (Sigma-Aldrich, Hungary) 100 μg/ml penicillin, 100 μg/ml streptomycin and 2 mM L-glutamine at 0.5×10^6/ml density for 3-4 days. The culture medium also contained 2.5 or 5 μg/ml of phytohemagglutinin A (PHA-P, Sigma-Aldrich Kft, Hungary) to increase K^+ channel expression [Bagdany M, et al. Mol Pharmacol 2005; 67:1034-1044].
(§3) Whole-cell currents were measured in voltage-clamped cells using Axopatch 200A and Multiclamp 700B amplifiers connected to a personal computer using Axon Digidata 1200 and 1322A data acquisition hardware, respectively (Molecular Devices Inc., Sunnyvale, Calif.). Series resistance compensation up to 70% was used to minimize voltage errors and achieve good voltage-clamp conditions. […] The measured osmolarity of the external solutions was between 302 and 308 mOsm. […] The measured osmolarity of the internal solutions was approximately 295 mOsm. Bath perfusion around the measured cell with different test solutions was achieved using a gravity-flow perfusion system. […]

Kv1.3 channels [2] = target: T1, Kv1.3 channels; details: natural toxin, Bagdany et al., 2005; cited from earlier work
hKv1.2 = target: T2, hKv1.2 (Homo sapiens, UniProt P16389); details: natural toxin, Bagdany et al., 2005, read-out: Kd for Kv1.2, cited from earlier work
T2 construct: expressed in transfected cells; host or cells: Cos-7 cells, co-transfected with a separate GFP plasmid

Kv1.3 channels [3] = test: Whole-cell patch-clamp block of Kv1.3 currents in activated human peripheral T lymphocytes; assay type: cell-based
Experimental: as §1, §2, §3

Kv1.3 [4] = details: found by Cahalan and Chandy 2009; read-out: IC50 for block of Kv1.3; cited from earlier work
Kv1.3 [5] = test: Literature block of Kv1.3 by ADWX-1
Source text: Han, S et al. have applied a structural approach [Han S et al, J Biol Chem 2008; 283(27):19058-19065.] to improve Kv1.3 selectivity of scorpion toxins. The authors started from the BmKTX scorpion toxin (Bhutus martensi) and designed a peptide with three point mutations based on binding studies to the Kv1.3 K channel at the molecular interaction level. Specifically, glycine (G) 11 was substituted with arginine (R), isoleucine (I) 28 with threonine (T) and aspartate (D) 33 with histidine (H) (BmKTX-Arg11Thr28His33 or ADWX-1 in short). […] 2009 231(1): 59-87.].

T2 sequence (P16389 whole entry): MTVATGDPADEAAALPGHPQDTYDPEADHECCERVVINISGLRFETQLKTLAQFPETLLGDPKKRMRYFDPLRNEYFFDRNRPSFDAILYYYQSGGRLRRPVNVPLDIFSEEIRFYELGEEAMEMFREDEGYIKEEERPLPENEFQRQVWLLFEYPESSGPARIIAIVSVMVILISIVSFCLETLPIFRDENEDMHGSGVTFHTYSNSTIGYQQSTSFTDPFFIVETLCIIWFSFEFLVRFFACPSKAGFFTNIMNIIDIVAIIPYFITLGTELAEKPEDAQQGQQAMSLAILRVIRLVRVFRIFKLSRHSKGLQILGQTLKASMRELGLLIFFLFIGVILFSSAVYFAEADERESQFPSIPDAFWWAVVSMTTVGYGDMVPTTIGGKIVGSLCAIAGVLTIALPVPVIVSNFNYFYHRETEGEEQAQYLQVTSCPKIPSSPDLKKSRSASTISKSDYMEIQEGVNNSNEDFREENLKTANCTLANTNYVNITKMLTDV
T1 sequence (P22001 whole entry): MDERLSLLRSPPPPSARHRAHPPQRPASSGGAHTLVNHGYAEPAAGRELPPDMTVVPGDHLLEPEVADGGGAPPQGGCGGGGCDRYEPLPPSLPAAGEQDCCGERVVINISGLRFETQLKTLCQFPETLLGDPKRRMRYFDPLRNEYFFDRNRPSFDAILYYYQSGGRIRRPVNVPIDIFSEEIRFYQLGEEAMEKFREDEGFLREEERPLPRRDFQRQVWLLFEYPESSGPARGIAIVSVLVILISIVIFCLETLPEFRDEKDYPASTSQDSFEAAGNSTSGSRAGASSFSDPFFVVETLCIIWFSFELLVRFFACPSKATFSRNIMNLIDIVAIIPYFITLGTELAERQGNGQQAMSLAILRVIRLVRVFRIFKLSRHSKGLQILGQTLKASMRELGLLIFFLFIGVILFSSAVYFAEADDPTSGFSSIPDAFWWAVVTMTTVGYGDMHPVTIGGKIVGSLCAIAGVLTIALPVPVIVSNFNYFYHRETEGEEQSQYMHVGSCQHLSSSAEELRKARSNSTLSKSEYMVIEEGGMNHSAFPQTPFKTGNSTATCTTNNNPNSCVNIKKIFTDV

Question: With CSCC[C@@H]1NC(=O)[C@@H]2CSSC[C@H](NC(=O)[C@H](CCC(=O)O)NC(=O)[C@H](CCCCN)NC(=O)[C@H](CC(N)=O)NC(=O)[C@H](C)NC(=O)[C@H](C)NC(=O)[C@H](C)N)C(=O)N[C@@H]([C@@H](C)O)C(=O)NCC(=O)N3CCC[C@H]3C(=O)N[C@@H](CCC(N)=O)C(=O)N[C@@H](Cc3c[nH]cn3)C(=O)N[C@H]3CSSC[C@H](NC(=O)[C@H](CCCCN)NC(=O)[C@H](CCCNC(=N)N)NC(=O)[C@H](CC(N)=O)NC1=O)C(=O)N[C@@H](CCCCN)C(=O)N[C@H]1CSSC[C@H](NC(=O)[C@H](Cc4ccccc4)NC(=O)[C@H](CC(N)=O)NC(=O)[C@H]([C@@H](C)O)NC3=O)C(=O)N[C@@H](CCCNC(=N)N)C(=O)N[C@@H](CC(=O)O)C(=O)N[C@@H](C)C(=O)N[C@@H](CCCCN)C(=O)N[C@@H](CSSC[C@@H](C(=O)N[C@@H](CCCCN)C(=O)O)NC(=O)[C@H](CC(N)=O)NC(=O)[C@H]([C@@H](C)O)NC1=O)C(=O)N[C@@H]([C@@H](C)O)C(=O)N[C@@H](Cc1c[nH]cn1)C(=O)NCC(=O)N[C@@H](CCCCN)C(=O)N2 [(N-AAAN, K16D, N17A, F32T)] (HELM PEPTIDE1{A.A.A.N.K.E.C.T.G.P.Q.H.C.T.N.F.C.R.D.A.K.C.T.H.G.K.C.M.N.R.K.C.K.C.T.N.C.K}$PEPTIDE1,PEPTIDE1,7:R3-27:R3|PEPTIDE1,PEPTIDE1,13:R3-32:R3|PEPTIDE1,PEPTIDE1,17:R3-34:R3|PEPTIDE1,PEPTIDE1,22:R3-37:R3$$$V2.0; N-terminus and C-terminus assumed; bridges inferred) as the molecule, how does the pKd (Kv1.3 channels [1]) read?
Answer: 6.40

Question: With Anuroctoxin [natural toxin] as the molecule, how does the pKd (Kv1.3 channels [2]) read?
Answer: 9.14

Question: What about the pKd (hKv1.2; listed as Anuroctoxin) of the same molecule?
Answer: 8.21

Question: What about the pKd (hKv1.2) of the same molecule?
Answer: 8.21

Question: And the “selectivity ratio SR=Kd[1.2]/Kd[1.3]” value (Kv1.3 channels [3])?
Answer: 9

Question: And the “selectivity for Kv1.3 over Kv1.2” value (Kv1.3 channels [3]; ratio of Kd,Kv1.2 and Kd,Kv1.3)?
Answer: 9 fold

Question: With BmKTX-Arg11Thr28His33 [ADWX-1] as the molecule, how does the pIC50 (Kv1.3 [4]) read?
Answer: 8.92

Question: And the “lower potency of Cahalan/Chandy value versus Han value” (Kv1.3 [5])?
Answer: 1000 fold
